The target of one data set is T1, DnaJB4 (Homo sapiens, UniProt Q9UDY4).
T1 construct: 6-His with TEV-cleavable linker (N, cleaved yes); made in house; host or cells: Escherichia coli BL21 (DE3) Rosetta
Kind of data set: Fluorescence polarization saturation binding of Hsp72 tracer to DnaJB4. The following applies: Fig. 8A right; FP saturation binding, 20 nM tracer, JDP binding buffer pH 8.0, 30 min room temperature; mean with 95% confidence interval, four replicates. The protocol:
(§1) All FP experiments were performed in 384-well, black, low-volume, round-bottom plates at a final assay volume of 18 μl (Corning 4511). Polarization values in millipolarization units (mP) were measured at an excitation wavelength of 485 nm and an emission wavelength of 525 nm, with 100 flashes per read using a Spectramax M5 plate reader (Molecular Devices). All experiments were performed 2 times in quadruplicate. Experimental data were analyzed using GraphPad Prism 9. Saturation binding data were background subtracted, and curves were fit using the model [Agonist] versus response (three parameters). For competition experiments, data were background subtracted to tracer alone and normalized to DMSO control to determine relative tracer displacement.
(§2) A sample of 20 nM Hsp72 tracers (FITC-Ahx-GSGPTIEEVD or FITC-Ahx-GSGPEIEEVD) was incubated with various concentrations of DnaJB4 (WT or QPD mutant) or CHIP in 2× dilutions (final [protein] = 110–0.013 μM) in binding buffer (JDP binding buffer = 50 mM Tris, 15 mM NaCl, 1 mM DTT, 0.01% Triton X-100, pH 8.0; CHIP binding buffer = 25 mM Hepes, 50 mM KCl, 0.01% Triton X-100, pH 7.4). The plate was covered from light and allowed to incubate at room temperature for 30 min prior to reading.
Background: Fluorescence polarisation rises when a labelled molecule tumbles more slowly, as on binding a larger partner.

Another data set concerns the target T2, DnaJB4 QPD mutant (Homo sapiens, UniProt Q9UDY4, H32Q).
T2 construct: 6-His with TEV-cleavable linker (N, cleaved yes); made in house; host or cells: Escherichia coli BL21 (DE3) Rosetta
Put plainly: Fluorescence polarization saturation binding of Hsp72 tracer to DnaJB4 QPD mutant. As to conditions: Fig. 2D, FP saturation binding, 20 nM tracer, 30 min room temperature, mean with 95% confidence interval, four replicates. The protocol:
as §1, §2

In data set [1] the test system is Hsp72–DnaJB4 complex. Put plainly: CHIP inhibition of DnaJB4-stimulated Hsp72 ATPase activity. The following applies: 25 μM CHIP, 40-fold excess relative to DnaJB4 (625 nM). It counts as biochemical. The protocol:
(§3) ATPase assays were carried out using the malachite green assay as described ([14], [83]). In brief, 1 μM Hsp72 and various concentrations of DnaJB4 were added to clear 96-well plates, and the reactions were initiated by addition of 2.5 mM ATP. Reactions were allowed to proceed for 1 h at 37 °C, after which they were developed using malachite green reagent and quenched with sodium citrate. Plate absorbance was measured at 620 nm, and a standard curve of sodium phosphate was used to convert the absorbance values to pmol ATP/μM Hsp72/min. Vmax and Km, app were derived as fit parameters to a modified Michaelis–Menten model (ATPase rate=Vmax∗[DnaJB4]/(Km, app+[DnaJB4])) where Vmax reflects the maximal increased ATP hydrolysis conferred by DnaJB4 binding and Km,app represents the half-maximal concentration of DnaJB4 binding to and stimulating the ATPase activity of Hsp72.

Data set [2] has as its system Hsp72–DnaJB4 complex. Put plainly: Luciferase refolding by Hsp72/DnaJB4 in the presence of TPR cochaperones. Format: biochemical. As to conditions: 1 μM Hsp72, 100 nM denatured luciferase, 120 nM DnaJB4; CHIP titration or 10 μM TPR protein; 1 h at 37 °C. The protocol:
Experiments were performed as described ([14]). Briefly, Renilla luciferase (Promega) was denatured in 8 M GdnHCl for 2 h at room temperature. Hsp72 (1 μM) and denatured luciferase (100 nM) were diluted into a working concentration in buffer containing an ATP regenerating system (23 mM Hepes, 120 mM KAc, 1.2 mM MgAc, 15 mM DTT, 61 mM creatine phosphate, 35 units/ml creatine kinase, and 5 ng/μl bovine serum albumin, pH 7.4). A titration series of DnaJB4 was added, and the reaction was initiated with the addition of 2.5 mM ATP. For competition assays with DnaJB4, complexes of Hsp72 (1 μM), denatured luciferase (100 nM), and DnaJB4 (120 nM) were incubated with either a titration of CHIP or 10 μM of indicated TPR protein. In all cases, the assay was allowed to incubate for 1 h at 37 °C in white, 96-well flat-bottom plates (Corning 3990). Luminescence was measured using the SteadyGlo luminescence reagent (Promega), and percent refolded luciferase was calculated using a standard curve of 100 to 0 nM native luciferase.

The next data set deals with WT Hsp72. Kind of data set: DnaJB4 stimulation of ATPase activity of WT Hsp72 (malachite green). It counts as biochemical. The protocol: as §3
Another data set deals with Hsp72 I637A. Put plainly: DnaJB4 stimulation of ATPase activity of Hsp72 I637A (malachite green). It counts as biochemical. The protocol:
as §3

The subject of the next data set is Hsp72 ΔEEVD. Put plainly: DnaJB4 stimulation of ATPase activity of Hsp72 ΔEEVD (malachite green). As to conditions: Hsp72 ΔEEVD mutant. It counts as biochemical. The protocol: as §3
A further data set has as its system Hsp70–CHIP complex. Kind of data set: In vitro ubiquitination of Hsc70 by CHIP in the presence of DnaJB4. As to conditions: 1 μM CHIP, 1 μM FAM-labeled Hsc70, increasing DnaJB4, 10 min room temperature. It counts as biochemical. The protocol: (§4) Four 4 × stock solutions were prepared containing (i) Ube1 (R&D Systems) + UbcH5c/UBE2D3 (R&D Systems) (400 nM Ube1 and 4 μM UbcH5c), (ii) Ubiquitin (R&D Systems) (1 mM Ub), (iii) CHIP + substrate + DnaJB4 (4 μM CHIP, 4 μM substrate, varying concentrations of DnaJB4), and (iv) ATP + MgCl2 (10 mM ATP and 10 mM MgCl2) in ubiquitination assay buffer (50 mM Tris pH 8.0, 15 mM NaCl). CHIP + substrate + DnaJB4 solutions were allowed to equilibrate at room temperature for 30 min prior to initiating the reaction. Ubiquitination reactions were generated by adding 10 μl of each 4 × stock, in order from 1 to 4, for a final volume of 40 μl(100 nM Ube1, 1 μM UbcH5c, 250 μM ubiquitin, 2.5 mM ATP, 2.5 mM MgCl2, 1 μM CHIP and 1 μM substrate). […] Samples were separated by SDS-PAGE on 4% to 20% polyacrylamide gels (Bio-Rad) and analyzed by in-gel fluorescence on a Chemidoc Imager (Bio-Rad) using the SYBR green fluorescence setting or by staining with Coomassie blue reagent. Quantitation of substrate ubiquitination was performed by densitometry analysis in ImageJ (NIH), which was thresholded to a no-CHIP control.
(§5) Substrates for in vitro ubiquitination assays were labeled with 6-carboxyfluorescein (FAM) to enable in-gel fluorescence measurement of ubiquitination as described ([35]). […]

Data set [3] deals with Hsp90⍺ ubiquitination by CHIP. Put plainly: In vitro ubiquitination of Hsp90⍺ by CHIP in the presence of DnaJB4. The following applies: 1 μM CHIP, 1 μM FAM-labeled Hsp90⍺, increasing DnaJB4, 10 min room temperature. It counts as biochemical. The protocol:
as §4, §5

Data set [4] concerns MAPT/tau ubiquitination by CHIP. Kind of data set: In vitro ubiquitination of MAPT/tau by CHIP in the presence of DnaJB4. It counts as biochemical. As to conditions: 1 μM CHIP, tau substrate, 30 min room temperature. The protocol:
Four 4 × stock solutions were prepared containing (i) Ube1 (R&D Systems) + UbcH5c/UBE2D3 (R&D Systems) (400 nM Ube1 and 4 μM UbcH5c), (ii) Ubiquitin (R&D Systems) (1 mM Ub), (iii) CHIP + substrate + DnaJB4 (4 μM CHIP, 4 μM substrate, varying concentrations of DnaJB4), and (iv) ATP + MgCl2 (10 mM ATP and 10 mM MgCl2) in ubiquitination assay buffer (50 mM Tris pH 8.0, 15 mM NaCl). CHIP + substrate + DnaJB4 solutions were allowed to equilibrate at room temperature for 30 min prior to initiating the reaction. Ubiquitination reactions were generated by adding 10 μl of each 4 × stock, in order from 1 to 4, for a final volume of 40 μl(100 nM Ube1, 1 μM UbcH5c, 250 μM ubiquitin, 2.5 mM ATP, 2.5 mM MgCl2, 1 μM CHIP and 1 μM substrate). Reactions were incubated at room temperature (10 min for chaperone ubiquitination, 30 min for tau ubiquitination), quenched in 20 μl 3 × SDS-PAGE loading buffer (188 mM Tris-HCl pH 6.8, 3% SDS, 30% glycerol, 0.01% bromophenol blue, 15% β-mercaptoethanol), and heated to 95 °C for 5 min. Samples were separated by SDS-PAGE on 4% to 20% polyacrylamide gels (Bio-Rad) and analyzed by in-gel fluorescence on a Chemidoc Imager (Bio-Rad) using the SYBR green fluorescence setting or by staining with Coomassie blue reagent. Quantitation of substrate ubiquitination was performed by densitometry analysis in ImageJ (NIH), which was thresholded to a no-CHIP control. […]

T2 sequence (Q9UDY4 whole entry H32Q): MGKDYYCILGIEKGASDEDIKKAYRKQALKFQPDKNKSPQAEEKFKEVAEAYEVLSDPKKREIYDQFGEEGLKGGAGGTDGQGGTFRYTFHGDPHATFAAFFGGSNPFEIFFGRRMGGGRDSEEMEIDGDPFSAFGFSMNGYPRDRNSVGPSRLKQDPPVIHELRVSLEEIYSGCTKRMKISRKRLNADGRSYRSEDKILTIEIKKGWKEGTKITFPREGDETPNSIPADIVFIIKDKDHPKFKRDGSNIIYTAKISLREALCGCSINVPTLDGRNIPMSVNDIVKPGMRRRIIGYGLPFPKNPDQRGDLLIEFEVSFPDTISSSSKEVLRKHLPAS
T1 sequence (Q9UDY4 whole entry): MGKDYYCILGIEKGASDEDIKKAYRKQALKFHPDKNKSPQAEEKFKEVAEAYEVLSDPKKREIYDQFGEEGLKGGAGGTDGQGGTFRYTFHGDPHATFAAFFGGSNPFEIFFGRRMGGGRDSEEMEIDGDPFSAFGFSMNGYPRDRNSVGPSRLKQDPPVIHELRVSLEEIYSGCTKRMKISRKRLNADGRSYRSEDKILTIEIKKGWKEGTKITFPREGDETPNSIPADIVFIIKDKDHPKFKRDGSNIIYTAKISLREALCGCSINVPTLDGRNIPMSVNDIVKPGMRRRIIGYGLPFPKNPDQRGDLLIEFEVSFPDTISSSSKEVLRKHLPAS

By Kd is commonly meant the free concentration of one partner at which half of the binding sites on the other are occupied at equilibrium, for simple one-to-one binding. High values mean weaker binding, low ones tighter binding. As to `CC[C@H](C)[C@H](NC(=O)[C@@H](NC(=O)[C@@H]1CCCN1C(=O)CNC(=O)[C@H](CO)NC(=O)CNC(=O)CCCCCNC(=S)Nc1ccc2c(c1)C(=O)OC21c2ccc(O)cc2Oc2cc(O)ccc21)[C@@H](C)O)C(=O)N[C@@H](CCC(=O)O)C(=O)N[C@@H](CCC(=O)O)C(=O)N[C@H](C(=O)N[C@@H](CC(=O)O)C(=O)O)C(C)C` [Hsp72 tracer], the Kd at DnaJB4 stood at 1.97 ± 0.28 µM; on DnaJB4 QPD mutant, 2.44 ± 0.28 µM.
“CHIP: C terminus of Hsc70 interacting protein, E3 ubiquitin ligase, TPR cochaperone, recombinant human”: in the data set with Hsp72–DnaJB4 complex [1], the “inhibition of DnaJB4-stimulated ATPase activity” value is reported as “significant inhibition”. The “effect on client (luciferase) refolding by Hsp72–DnaJB4” value in the data set on Hsp72–DnaJB4 complex [2] is listed as “potent inhibitor”.
For “DnaJB4: representative class B J-domain protein, recombinant, full length”, in the data set with WT Hsp72 (WT Hsp72), the “stimulation of Vmax,app over baseline” value is on record as approximately 4 fold. In addition, the “maximum ATPase activity (Vmax,app)” value in the data set on WT Hsp72 (WT Hsp72 1 μM, DnaJB4 titration, 2.5 mM ATP, 1 h at 37 °C, Michaelis–Menten fit) is reported as 37.8 ± 3.5 pmol ATP/min. The Km in the data set on WT Hsp72 (WT Hsp72 1 μM, DnaJB4 titration, Michaelis–Menten fit, read-out: half-maximal concentration (Km,app)) was approximately 0.06 µM; in the data set on Hsp72 I637A (Hsp72 I637A 1 μM, DnaJB4 titration, Michaelis–Menten fit, read-out: Km,app), approximately 0.01 µM. The “Vmax,app above baseline” value in the data set on Hsp72 I637A (Hsp72 I637A) was approximately 2 fold. Besides, the “Vmax,app” value in the data set with Hsp72 I637A (Hsp72 I637A 1 μM, DnaJB4 titration, 2.5 mM ATP, 1 h at 37 °C, Michaelis–Menten fit) turned out to be 23.9 ± 3.6 pmol ATP/min. In addition, the “stimulation of ATPase activity” value in the data set with Hsp72 ΔEEVD is reported as “unable to stimulate”. Moreover, the “effect on Hsp70 ubiquitination by CHIP” value in the data set on Hsp70–CHIP complex is reported as “dose-dependent inhibition”. Further, the “effect on Hsp90 ubiquitination by CHIP” value in [3] is “no effect”. The “effect on ubiquitination of Hsc70 and tau by CHIP” value in data set [4] is “suppressed”.
